One assay concerns pBluescript plasmid DNA. Kind of assay: Topoisomerase I catalysed DNA relaxation or unwinding assay. Format: biochemical. The procedure:
For assay, 5 nM supercoiled pBluescript d-s plasmid DNA and 10 U of topoisomerase-I active enzyme were used in each reaction well. To ensure that the assay determines the DNA-intercalating property of compounds and not topoisomerase I inhibition, in a parallel experiment relaxed plasmid DNA was first prepared by treating with topo I enzyme for 30 min and then used as an initial substrate for the assay. DNA relaxation assays were performed in the presence or absence of compounds in 40 μl of DNA unwinding assay buffer. After 30 min incubation at 37 °C, reaction mixtures were treated with 3 μl of 250 mM EDTA and extracted with phenol/chloroform. The DNA was dissolved in tris-EDTA buffer, pH 8.0. The samples (20 μl) were treated with 2 μl of 2.5% SDS, mixed with 2.5 μl agarose gel loading buffer (10x) and subjected to electrophoresis on a 0.8% agarose gel without EtBr (separating the DNA in the presence of EtBr would convert the relaxed DNA into the supercoiled form). After the electrophoretic separation, DNA bands were stained with 1 μg/ml EtBr and visualized using a UV illuminator. The compounds were compared with fascaplysin, which is a known DNA-intercalating molecule. Camptothecin, which is a known topoisomerase- I inhibitor, was used to test the activity and inhibition of enzyme.

Assay [1] has as its system NCI-H358 (NSCLC; p53 null, pRb null). Description: Cell proliferation (MTT) assay, NCI-H358. Format: cell-based. The note with it: Homo sapiens, 48 h, read-out: IC50 cell growth inhibition, NCI-H358. The procedure: All 10 human cancer cell lines were maintained at 37 °C in 5% CO2 in RPMI-1640 medium, supplemented with 10% foetal calf serum and 100 μg/ml normocin. The 10 cancer cell lines used for screening were all obtained from ATCC (Manassas, VA, USA); they were the NSCLC (a form of cancer that is resistant to chemotherapy) lines: NCI-H460 (pRb^+, p53^+), A549 (pRb^+, p53^+), Calu-1 (pRb^+, p53-null), NCI-H1299 (pRb^+, p53-null), NCI-H358 (pRb-null, p53-null); the colon cancer line LS174T (pRb^+, p53^+); the prostate cancer line PC-3 (pRb^+, p53-null); the pancreatic cancer line MiaPaca (pRb^+, p53-mutant). The genotypes within brackets indicate the status of the tumour suppressor proteins pRb and p53. The mouse embryonic normal hepatic cell line (BNL CL2) and its SV40 large T-antigen-transformed counterpart cell line (BNL SV A.8) were also purchased from ATCC. The large T-antigen inactivates the tumour suppressor proteins p53 and pRb. The detailed procedure of cell proliferation (MTT) assay and IC50 determination was described previously.[32]

The test system of the next assay is NCI-H1299 cells. Description: Flow cytometric cell cycle analysis, NCI-H1299. The note with it: NCI-H1299, IC50 concentration, 24 h. Format: cell-based, human. On the procedure: (§1) The untreated (control) and treated (with test compounds) cells were harvested by trypsinization, washed once with PBS and then fixed in 70% chilled (−20 °C) ethanol for minimum 1 h. After the fixation step, cells were centrifuged for 5 min at 3000 × g at room temperature, and the pellet was suspended in PBS containing 50 μg/ml propidium iodide (Sigma-Aldrich, Dorset, UK; cat. no. P-4170) and 0.5 mg/ml DNase-free ribonuclease (Sigma-Aldrich; cat. no. R-5503). The cells were stained for 1 h in the dark at 4 °C. Cell cycle analysis was performed on the Beckman Coulter (Epics Altra) fluorescence-activated cell sorter (Beckman Coulter UK Ltd, Buckinghamshire, UK). To gate all the events that represent single cells, and not cell doublets or cell clumps, the following analyses were performed on the samples. Cytograms of propidium iodide fluorescence peak signal versus integrated fluorescence or the linear signal were plotted. All data points on the straight line were isolated in a single gate and the gated data was further used for plotting a histogram that represents a complete cell cycle. The total number of events was not allowed to exceed 200 events per s. Data acquisition was stopped after a minimum of 10 000 events had been collected.
On the technique in general: Flow cytometry measures light scatter and fluorescence of single cells or particles in a stream.

Another assay has as its system NCI-H358 cells. Kind of assay: Flow cytometric cell cycle analysis, synchronized NCI-H358. Particulars: NCI-H358 after nocodazole block, released in presence of BPT, within 12 h. Format: cell-based, human. The procedure:
as §1

The subject of assay [2] is BNL CL2 (mouse embryonic normal hepatic cells). Kind of assay: Flow cytometric cell cycle analysis, BNL CL2. Format: cell-based. The note with it: BNL CL2, 48 h, IC50 and IC70 concentrations. On the procedure: as §1
A further assay has as its system tubulin in A549 cells. Description: Tubulin polymerization/depolymerization in live cells (western blot). Format: cell-based, human. On the procedure:
A549 (NSCLC) cells were seeded at a concentration of 10 000 cells per well in 1 ml complete growth medium in 24-well per 15 mm culture plates. The plates were incubated for 24 h for cell attachment and stabilization. In the first set of experiments, the cells were treated with 10 nM paclitaxel and different concentrations of BPT for 30 min (cells underwent simultaneous treatment of paclitaxel and BPT). In the second set of experiments, to study the effect of BPT on the stabilised form of tubulin, cells were pretreated with 10 nM paclitaxel for 30 min. The cell monolayer was washed two times with sterile PBS and fresh growth medium containing different concentrations of BPT were added. The plates were further incubated for 30 min, the cell monolayers were washed two times with sterile PBS at room temperature and then 100 μl tubulin extraction buffer (1 mM MgCl2, 2 mM EGTA, 0.5% NP40 and 20 mM Tris-HCl (pH 6.8)) supplemented with 2 mM phenylmethylsulfonyl fluoride, and a protease inhibitor cocktail (Sigma-Aldrich; cat. no. P8340) was added per well. After a short and vigorous vortex mixing, the cell lysates were incubated at room temperature for 5 min and then centrifuged at 16 000 r.p.m. for 10 min to separate the soluble and polymerized tubulin fractions. […]
Background: In western blotting, separated proteins are transferred to a membrane and probed.

The subject of assay [3] is BNL SV A.8 (SV40-mediated transformed mouse embryonic hepatic cell line). Description: Long-term cell survival assay, BNL SV A.8. Format: cell-based. The note with it: BNL SV A.8, 12 days. The procedure:
Fig. S3: Long term survival of Mouse embryonic normal hepatic cell line (BNL CL2) and SV40 mediated transformed mouse embryonic hepatic cell line (BNL SV A.8) after the treatment with BPT. The cells were treated with the diffrent concentrations of BPT and then incubated in drug free medium for 12 days. the colonies were fixed in methanol : acetic acid (2: 1) and stained with 1% crystal violet and representative plates were scanned using the gel documentation system .

This note sets out measurements from PMC4669722, “Antitumour potential of BPT: a dual inhibitor of cdk4 and tubulin polymerization” (Cell Death & Disease, 2015).

“Also recorded” adds a separate entry of the source.

What is called IC50 is the point on the concentration scale where inhibition reaches its midpoint. Take `O=C(c1ccccc1-c1ccccc1)N1CCc2c([nH]c3ccccc23)C1` [BPT, 2-(biphenyl-2-carbonyl)-2,3,4,9-tetrahydro-1H-pyrido[3,4-b]indole]: the “state of relaxed (negatively supercoiled) plasmid DNA after treatment” value in the assay with pBluescript plasmid DNA (relaxed pBluescript DNA as substrate, BPT up to 100 μM, fascaplysin 1 μM) is given as “remained relaxed”. The “hindrance of topoisomerase-I catalysed DNA relaxation” value in the assay with pBluescript plasmid DNA (supercoiled pBluescript DNA, fascaplysin 10 and 1 µM, BPT 10 and 100 µM) is reported as “does not hinder DNA relaxation process; also recorded: does not intercalate”. Further, the IC50 in assay [1] worked out at 680 nM. For the same molecule, the “cells in G2/M” value in the assay on NCI-H1299 cells is listed as 50%. The “G0/G1- and S-phase cells entering the G2/M phase” value in the assay with NCI-H358 cells was greater than 50%. In addition, in assay [2], the “cells detected in the sub-G1 phase” value was less than 10% and the “normal cells in the G2/M phase” value was “More than 50%”. The “paclitaxel-mediated tubulin polymerization in live cells” value in the assay with tubulin in A549 cells (A549, simultaneous 10 nM paclitaxel and BPT, 30 min) is reported as “inhibited in a dose-dependent manner”. In addition, the “depolymerization of paclitaxel-stabilized tubulin in live cells” value in the assay on tubulin in A549 cells (A549 pretreated with 10 nM paclitaxel 30 min, then BPT 30 min) is listed as “enhanced the tubulin depolymerization”. Also, in assay [3], the “number of colonies, long-term survival” value is reported as “selectively reduces the number of colonies”.
